ChEMBL document CHEMBL1139907, “Further studies on hepatitis C virus NS5B RNA-dependent RNA polymerase inhibitors toward improved replicon cell activities: benzimidazole and structurally related compounds bearing the 2-morpholinophenyl moiety” (Bioorg Med Chem Lett, 2007)

Experiments:
[1] = Inhibition of HCV NS5B polymerase; design: species or system Hepacivirus hominis
[2] = test system: Hepatitis C virus; test: Antiviral activity against HCV in Huh-5-2 cells by replicon assay; assay type: functional, organism-based, Hepacivirus hominis
[3] = Cytotoxicity against Huh-5-2 cells; assay type: cell-based; conditions: human
[4] = test system: Hepacivirus hominis; test: Ratio of EC50 of HCV to IC50 for HCV NS5B polymerase

Structure (SMILES) | IC50 [1] [nM] | EC50 [2] [nM] | CC50 [3] [nM] | Ratio [4]
O=C(O)c1ccc2c(c1)cc(-c1ccc(OCc3cc(N4CCCC4=O)ccc3N3CCOCC3)cc1)n2C1CCCCC1 | 30 | 210 | > 20000 | 7
COCCN(C)c1ccc(N2CCCC2=O)cc1COc1ccc(-c2nc3cc(C(=O)O)ccc3n2C2CCCCC2)c(F)c1 | 260 | 1300 | > 20000 | 5
Cn1c(-c2ccc(OCc3cc(N4CCCC4=O)ccc3N3CCOCC3)cc2)c(C2CCCCC2)c2ccc(C(=O)O)cc21 | 7.2 | 52 | > 20000 | 7.2
O=C(O)c1ccc2c(C3CCCCC3)c3n(c2c1)CCOc1cc(OCc2cc(N4CCCC4=O)ccc2-c2ccc(Cl)cc2)ccc1-3 | 19 | 60 | > 20000 | 3.1
O=C(O)c1ccc2c(c1)nc(-c1ccc(OCc3cc(N4CCCC4=O)ccc3Oc3ccc(Cl)cc3)cc1F)n2C1CCCCC1 | 230 | 3100 | > 20000 | 13
O=C(O)c1ccc2c(c1)nc(-c1ccc(OCc3cc(N4CCCC4=O)ccc3N3CCOCC3=O)cc1F)n2C1CCCCC1 | 1000 | > 30000 | > 20000 | > 30
O=C(O)c1ccc2c(c1)nc(-c1ccc(OCc3cc(N4CCCCC4=O)ccc3N3CCOCC3)cc1F)n2C1CCCCC1 | 90 | 580 | > 20000 | 6.4
CC(=O)Nc1ccc(N2CCOCC2)c(COc2ccc(-c3nc4cc(C(=O)O)ccc4n3C3CCCCC3)c(F)c2)c1 | 70 | 910 | > 20000 | 13
CC(=O)N(C)c1ccc(N2CCOCC2)c(COc2ccc(-c3nc4cc(C(=O)O)ccc4n3C3CCCCC3)c(F)c2)c1 | 51 | 370 | > 20000 | 7.3
O=C(O)c1ccc2c(c1)nc(-c1ccc(OCc3cc(N4CCCC4=O)ccc3N3CCC(O)CC3)cc1F)n2C1CCCCC1 | 150 | 1400 | > 20000 | 9.3
CC(=O)N1CCN(c2ccc(N3CCCC3=O)cc2COc2ccc(-c3nc4cc(C(=O)O)ccc4n3C3CCCCC3)c(F)c2)CC1 | 110 | 950 | > 20000 | 8.6
CN(C)C(=O)c1ccc(N2CCOCC2)c(COc2ccc(-c3nc4cc(C(=O)O)ccc4n3C3CCCCC3)c(F)c2)c1 | 68 | 440 | > 20000 | 6.5
CN1CCN(c2ccc(N3CCCC3=O)cc2COc2ccc(-c3nc4cc(C(=O)O)ccc4n3C3CCCCC3)c(F)c2)CC1 | 130 | 1100 | > 20000 | 8.5
O=C(O)c1ccc2c(C3CCCCC3)c3n(c2c1)CCOc1cc(OCc2cc(N4CCCC4=O)ccc2N2CCOCC2)ccc1-3 | 7.2 | 7.6 | > 20000 | 1.1
COCC(=O)N(C)c1ccc(N2CCOCC2)c(COc2ccc(-c3nc4cc(C(=O)O)ccc4n3C3CCCCC3)c(F)c2)c1 | 99 | 1200 | > 20000 | 12
O=C(O)c1ccc2c(c1)nc(-c1ccc(OCc3cc(N4CCCC4=O)ccc3N3CCCCC3)cc1F)n2C1CCCCC1 | 150 | 800 | > 20000 | 5.3
O=C(O)c1ccc2c(c1)nc(-c1ccc(OCc3cc(N4CCCC4=O)ccc3-c3ccc(Cl)cc3)cc1F)n2C1CCCCC1 | – | – | > 20000 | 19
CC(C)NC(=O)c1ccc(N2CCOCC2)c(COc2ccc(-c3nc4cc(C(=O)O)ccc4n3C3CCCCC3)c(F)c2)c1 | 48 | 380 | > 20000 | 7.9
O=C(O)c1ccc2c(c1)nc(-c1ccc(OCc3cc(N4CCCC4=O)ccc3N3CCC(C(=O)O)CC3)cc1F)n2C1CCCCC1 | 180 | 3500 | > 20000 | 19
COc1ccc(N2CCCC2=O)cc1COc1ccc(-c2nc3cc(C(=O)O)ccc3n2C2CCCCC2)c(F)c1 | 410 | 1400 | > 20000 | 3.4
O=C(O)c1ccc2c(c1)nc(-c1ccc(OCc3cc(N4CCCC4=O)ccc3N3CCOCC3)cc1F)n2C1CCCCC1 | 66 | 310 | > 20000 | 4.7
O=C(O)c1ccc2c(c1)nc(-c1ccc(OCc3cc(N4CCCS4(=O)=O)ccc3N3CCOCC3)cc1F)n2C1CCCCC1 | 71 | 550 | > 20000 | 7.7
O=C(O)c1ccc2c(c1)nc(-c1ccc(OCc3ccccc3N3CCOCC3)cc1F)n2C1CCCCC1 | 130 | 1000 | > 20000 | 7.7
O=C(O)c1ccc2c(c1)nc(-c1ccc(OCc3cc(Cl)ccc3N3CCOCC3)cc1F)n2C1CCCCC1 | 100 | 1200 | > 20000 | 12
CC(=O)N(c1ccc(N2CCOCC2)c(COc2ccc(-c3nc4cc(C(=O)O)ccc4n3C3CCCCC3)c(F)c2)c1)C(C)C | 42 | 270 | > 20000 | 6.4
